Data taken from patent publication US11793849B2, “Method of Chinese herbal medicine extract used for treating multiple diseases caused by drug resistant bacteria infection” (priority 2016, dated 2023).
Where two headings read alike, the source gives them in different places.

What was measured:
MDRAB [1] = experiment: MIC determination, microdilution broth method; type: cell-based, Acinetobacter baumannii
Method: Determination methods of a Minimal Inhibitory Concentration (MIC) and a Minimum Bactericidal Concentration (MBC) of a test product: the MIC and the MBC of the Pithecellobium clypearia Benth water or ethanol extract to the MDRAB are determined by a microdilution broth method. And it is operated by referring to the microdilution broth method recommended by National Committee for Clinical Laboratory Standards (NCCLS).

MDRAB [2] = experiment: Checkerboard assay (combined-use MIC, FIC); type: cell-based, Acinetobacter baumannii; conditions: for FIC, all strains / MIC50 of the antibiotic after combined use / reduction of the antibiotic's MIC50 vs single use / reduction of the antibiotic's MIC90 vs single use / share of strains with FIC ≤ 0.5: 20 MDRABs; for MIC: Acinetobacter baumannii, read-out: single-use MIC
Method: Test methods of the sensibilization effects of the test product to similar antibiotics: it is operated by referring to a checkerboard assay recommended by NCCLS.
The checkerboard assay is performed in a 96-pore sterile culture plate.
Calculation of a Fractional Inhibitory Concentration (FIC): FIC=S20b combined-use MIC/S20b single-use MIC+antibiotic combined-use MIC/antibiotic single-use MIC. By calculating the FIC, the combined antibacterial interaction between the EA and the antibiotic is evaluated, with synergistic effect for FIC≤0.5, additive effect for 0.5<FIC≤1, indifferent effect for 1<FIC≤2 and antagonistic effect for FIC>2. According to a sterile growth pore, the optimum concentration ratio between the EA and the antibiotic is founded out. At last, the effect of the EA to strengthen the efficacy of the antibiotic is evaluated.

ATCC27853 = experiment: MIC determination, control strain; type: cell-based; conditions: read-out: MIC
Method: Determination methods of a Minimal Inhibitory Concentration (MIC) and a Minimum Bactericidal Concentration (MBC) of a test product: the MIC and the MBC of the Pithecellobium clypearia Benth water or ethanol extract to the MDRAB are determined by a microdilution broth method.

[3] = antibiotic with 60% ethanol extract
[4] = antibiotic with 95% ethanol extract
[5] = antibiotic with EA (10% ethanol extract)
[6] = antibiotic with EA (water extract)

CN(C)[C@@H]1C(O)=C(C(N)=O)C(=O)[C@@]2(O)C(O)=C3C(=O)c4c(O)cccc4[C@@](C)(O)[C@H]3C[C@@H]12 [TE, Tetracycline]
4 µg/mL: combined-use MIC (MDRAB [2]; strain A5, EA (10% ethanol extract) with TE) | combined-use MIC (MDRAB [2]; strain A5, EA (water extract) with TE)
50%: share of strains with FIC ≤ 0.5 (MDRAB [2]; [3]) | reduction of the antibiotic's MIC90 vs single use (MDRAB [2]; [5])
1024 µg/mL: MIC (MDRAB [1]; strain A15, single use, EA=10% ethanol extract) | MIC (MDRAB [1]; strain A15, single use, EA=water extract)
1020 µg/mL: MIC (MDRAB [2]; strain A15, EA=60% ethanol extract) | MIC (MDRAB [2]; strain A15, EA=95% ethanol extract)
≤ 1: FIC, all strains (MDRAB [2]; [3]) | FIC, all strains (MDRAB [2]; [4]) | FIC, all strains (MDRAB [2]; [5]) | FIC, all strains (MDRAB [2]; [6])
2 µg/mL: combined-use MIC (MDRAB [2]; strain A4, EA (10% ethanol extract) with TE) | combined-use MIC (MDRAB [2]; strain A4, EA (water extract) with TE)
1 µg/mL: combined-use MIC (MDRAB [2]; strain A1, EA (10% ethanol extract) with TE) | combined-use MIC (MDRAB [2]; strain A1, EA (60% ethanol extract) + TE combined) | combined-use MIC (MDRAB [2]; strain A1, EA (95% ethanol extract) + TE combined) | combined-use MIC (MDRAB [2]; strain A1, EA (water extract) with TE) | combined-use MIC (MDRAB [2]; strain A4, EA (60% ethanol extract) + TE combined) | combined-use MIC (MDRAB [2]; strain A4, EA (95% ethanol extract) + TE combined)
87.5%: reduction of the antibiotic's MIC50 vs single use (MDRAB [2]; [3]) | reduction of the antibiotic's MIC50 vs single use (MDRAB [2]; [4])
45%: share of strains with FIC ≤ 0.5 (MDRAB [2]; [5])
32 µg/mL: MIC (MDRAB [1]; Acinetobacter baumannii, strain A5, EA=60% ethanol extract, read-out: MIC) | MIC (MDRAB [1]; Acinetobacter baumannii, strain A5, EA=95% ethanol extract, read-out: MIC) | MIC (MDRAB [1]; Acinetobacter baumannii, strain A5, single use, EA=10% ethanol extract, read-out: MIC) | MIC (MDRAB [1]; Acinetobacter baumannii, strain A5, single use, EA=water extract, read-out: MIC) | MIC50 of the antibiotic after combined use (MDRAB [2]; [3]) | MIC50 of the antibiotic after combined use (MDRAB [2]; [4]) | MIC (MDRAB [2]; strain A5 (printed AS in tables A43, A45), EA=95% ethanol extract) | MIC (MDRAB [2]; strain A5, EA=60% ethanol extract) | combined-use MIC (MDRAB [2]; strain A3, EA (60% ethanol extract) + TE combined) | combined-use MIC (MDRAB [2]; strain A3, EA (95% ethanol extract) + TE combined) | combined-use MIC (MDRAB [2]; strain A8, EA (60% ethanol extract) + TE combined) | combined-use MIC (MDRAB [2]; strain A8, EA (95% ethanol extract) + TE combined) | combined-use MIC (MDRAB [2]; strain A9, EA (10% ethanol extract) with TE) | combined-use MIC (MDRAB [2]; strain A9, EA (60% ethanol extract) + TE combined) | combined-use MIC (MDRAB [2]; strain A9, EA (95% ethanol extract) + TE combined) | combined-use MIC (MDRAB [2]; strain A10, EA (10% ethanol extract) with TE) | combined-use MIC (MDRAB [2]; strain A10, EA (60% ethanol extract) + TE combined) | combined-use MIC (MDRAB [2]; strain A10, EA (95% ethanol extract) + TE combined) | combined-use MIC (MDRAB [2]; strain A11, EA (60% ethanol extract) + TE combined) | combined-use MIC (MDRAB [2]; strain A11, EA (95% ethanol extract) + TE combined) | combined-use MIC (MDRAB [2]; strain A14, EA (60% ethanol extract) + TE combined) | combined-use MIC (MDRAB [2]; strain A14, EA (95% ethanol extract) + TE combined) | combined-use MIC (MDRAB [2]; strain A14, EA (water extract) with TE) | combined-use MIC (MDRAB [2]; strain A20, EA (60% ethanol extract) + TE combined) | combined-use MIC (MDRAB [2]; strain A20, EA (95% ethanol extract) + TE combined)
64 µg/mL: MIC50 of the antibiotic after combined use (MDRAB [2]; [5]) | MIC50 of the antibiotic after combined use (MDRAB [2]; [6]) | combined-use MIC (MDRAB [2]; strain A2, EA (10% ethanol extract) with TE) | combined-use MIC (MDRAB [2]; strain A2, EA (60% ethanol extract) + TE combined) | combined-use MIC (MDRAB [2]; strain A2, EA (95% ethanol extract) + TE combined) | combined-use MIC (MDRAB [2]; strain A3, EA (10% ethanol extract) with TE) | combined-use MIC (MDRAB [2]; strain A3, EA (water extract) with TE) | combined-use MIC (MDRAB [2]; strain A6, EA (10% ethanol extract) with TE) | combined-use MIC (MDRAB [2]; strain A6, EA (water extract) with TE) | combined-use MIC (MDRAB [2]; strain A8, EA (10% ethanol extract) with TE) | combined-use MIC (MDRAB [2]; strain A9, EA (water extract) with TE) | combined-use MIC (MDRAB [2]; strain A10, EA (water extract) with TE) | combined-use MIC (MDRAB [2]; strain A11, EA (10% ethanol extract) with TE) | combined-use MIC (MDRAB [2]; strain A11, EA (water extract) with TE) | combined-use MIC (MDRAB [2]; strain A15, EA (60% ethanol extract) + TE combined) | combined-use MIC (MDRAB [2]; strain A15, EA (95% ethanol extract) + TE combined) | combined-use MIC (MDRAB [2]; strain A15, EA (water extract) with TE) | combined-use MIC (MDRAB [2]; strain A16, EA (water extract) with TE) | combined-use MIC (MDRAB [2]; strain A17, EA (10% ethanol extract) with TE) | combined-use MIC (MDRAB [2]; strain A18, EA (60% ethanol extract) + TE combined) | combined-use MIC (MDRAB [2]; strain A19, EA (water extract) with TE) | combined-use MIC (MDRAB [2]; strain A20, EA (water extract) with TE)
75%: reduction of the antibiotic's MIC90 vs single use (MDRAB [2]; [3]) | reduction of the antibiotic's MIC90 vs single use (MDRAB [2]; [4]) | reduction of the antibiotic's MIC50 vs single use (MDRAB [2]; [5]) | reduction of the antibiotic's MIC50 vs single use (MDRAB [2]; [6]) | reduction of the antibiotic's MIC90 vs single use (MDRAB [2]; [6])
8 µg/mL: MIC (MDRAB [1]; Acinetobacter baumannii, strain A4, EA=60% ethanol extract, read-out: MIC) | MIC (MDRAB [1]; Acinetobacter baumannii, strain A4, EA=95% ethanol extract, read-out: MIC) | MIC (MDRAB [1]; Acinetobacter baumannii, strain A4, single use, EA=10% ethanol extract, read-out: MIC) | MIC (MDRAB [1]; Acinetobacter baumannii, strain A4, single use, EA=water extract, read-out: MIC) | MIC (MDRAB [2]; strain A4, EA=60% ethanol extract) | MIC (MDRAB [2]; strain A4, EA=95% ethanol extract) | combined-use MIC (MDRAB [2]; strain A5, EA (60% ethanol extract) + TE combined) | combined-use MIC (MDRAB [2]; strain A5, EA (95% ethanol extract) + TE combined) | MIC (ATCC27853; EA=10% ethanol extract) | MIC (ATCC27853; EA=60% ethanol extract) | MIC (ATCC27853; EA=95% ethanol extract) | MIC (ATCC27853; EA=water extract)
35%: share of strains with FIC ≤ 0.5 (MDRAB [2]; [4]) | share of strains with FIC ≤ 0.5 (MDRAB [2]; [6])
